Here are results for 15 molecules from patent US5140009A (Tap Pharmaceuticals, Inc., priority 1990, dated 1992).

For the experiment, the target named is T1, LHRH receptors (Rattus norvegicus, UniProt P30969).
T1 construct: Pituitary membranes containing LHRH receptors are prepared in batches from quick-frozen rat pituitaries; tissue Hilltop Labs; host or cells: rat pituitary membranes
T1 sequence (P30969 1-327): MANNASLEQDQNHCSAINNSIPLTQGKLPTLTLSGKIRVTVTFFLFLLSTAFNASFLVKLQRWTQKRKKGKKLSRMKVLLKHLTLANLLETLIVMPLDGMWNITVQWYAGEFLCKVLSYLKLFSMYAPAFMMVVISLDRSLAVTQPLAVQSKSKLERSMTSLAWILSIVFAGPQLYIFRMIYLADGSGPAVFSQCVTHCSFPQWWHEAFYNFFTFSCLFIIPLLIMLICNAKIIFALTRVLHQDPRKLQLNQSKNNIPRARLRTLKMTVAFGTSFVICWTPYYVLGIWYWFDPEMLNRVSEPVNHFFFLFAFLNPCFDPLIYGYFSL
As to the kind of experiment: Receptor Binding (radioligand receptor binding assay). The note with it: table 4, rat pituitary membranes, radioligand 50 pM, 2 hours at 4° C.

Where [1] appears, read: read-out: Receptor Binding pkI (converted).

Read-outs that look alike come from different tables or passages of the source. Numbered stars: 1 amine (or outer) side, 2 acyl side, 3 side chain; on linkers, the order of the positions; unused ones are H or OH. Square brackets hold non-standard residues; d marks the D form. Side chains are listed from the residue outwards. Peptide text beside a SMILES is read from it. * marks the point of attachment. Propanoyl(3-(4-F-phenyl)) = O=C(CCc1ccc(F)cc1)*; Phe(4-Cl) = N[C@@H](Cc1ccc(Cl)cc1)C(=O)O; X10 = O=C([C@@H](Cc1cncs1)N[*:1])[*:2]; 1Nal = N[C@@H](Cc1cccc2ccccc12)C(=O)O; d1Nal = N[C@H](Cc1cccc2ccccc12)C(=O)O; Lys(iPr) = CC(C)NCCCC[C@H](N)C(=O)O; NMeY = CN[C@@H](Cc1ccc(O)cc1)C(=O)O; Benzoyl(4-F) = O=C(c1ccc(F)cc1)*; NMeF = CN[C@@H](Cc1ccccc1)C(=O)O; d3Pal = N[C@H](Cc1cccnc1)C(=O)O; d2Thi = N[C@H](Cc1cccs1)C(=O)O; NHPhenethyl = c1ccc(CCN*)cc1; Nicotinoyl = O=C(c1cccnc1)*; X12 = O=C(c1ccc(F)c(Cl)c1)*; Morpholide = C1CN(*)CCO1; Orn = NCCC[C@H](N)C(=O)O; CO = O=C([*:1])[*:2]; azaGly = NNC(=O)O

With `CC(C)C[C@H](NC(=O)[C@@H](Cc1cncs1)NC(=O)[C@H](Cc1ccc(O)cc1)N(C)C(=O)[C@H](CO)NC(=O)[C@@H](Cc1cccc2ccccc12)NC(=O)CCc1ccc(F)cc1)C(=O)N[C@@H](CCCCNC(C)C)C(=O)N1CCC[C@H]1C(=O)N[C@H](C)C(N)=O` [Compound 204, (3-10)[N-(3-(4-Fluorophenyl)propionyl)-D-1-Nal^3 -NMeTyr^5 -D-Thiaz6-Lys^8 (N-epsilon-isopropyl)-D-Ala^10]LHRH] ({Propanoyl(3-(4-F-phenyl))}-[d1Nal]S[NMeY][X10]L[Lys(iPr)]P[dA]-NH2), the Ki under setting [1] is 21.4 pM.

For `CC(C)C[C@H](NC(=O)[C@@H](CCCCNC(=O)c1cccnc1)NC(=O)[C@H](Cc1ccccc1)N(C)C(=O)[C@H](CO)NC(=O)[C@@H](Cc1cccc2ccccc12)NC(=O)CCc1ccc(F)cc1)C(=O)N[C@@H](CCCCNC(C)C)C(=O)N1CCC[C@H]1C(=O)N[C@H](C)C(N)=O` [Compound 205, (3-10)[N-(3-(4-Fluorophenyl)propionyl)-D-1-Nal^3 -NMePhe^5 -D-Lys^6 (N-epsilon-nicotinyl)-D-Ala^10]LHRH] ({Propanoyl(3-(4-F-phenyl))}-[d1Nal]S[NMeF][dK](Nicotinoyl)L[Lys(iPr)]P[dA]-NH2), under setting [1], the Ki was 30.2 pM.

As for `CC(C)C[C@H](NC(=O)[C@@H](Cc1cccnc1)NC(=O)[C@H](Cc1ccc(O)cc1)N(C)C(=O)[C@H](CO)NC(=O)[C@@H](Cc1cccc2ccccc12)NC(=O)CCc1ccc(F)cc1)C(=O)N[C@@H](CCCCNC(C)C)C(=O)N1CCC[C@H]1C(=O)N[C@H](C)C(N)=O` [Compound 208, (3-10)[N-(3-(4-Fluorophenyl)propionyl)-D-1-Nal^3 -NMeTyr^5 -D-3-Pal^6 -Lys^8 (N-epsilon-isopropyl)-D-Ala^10]LHRH] ({Propanoyl(3-(4-F-phenyl))}-[d1Nal]S[NMeY][d3Pal]L[Lys(iPr)]P[dA]-NH2), the Ki under setting [1] is 12.6 pM.

As for `CC(C)C[C@H](NC(=O)[C@@H](CCCCNC(=O)N1CCOCC1)NC(=O)[C@H](Cc1ccc(O)cc1)N(C)C(=O)[C@H](CO)NC(=O)[C@@H](Cc1cccc2ccccc12)NC(=O)CCc1ccc(F)cc1)C(=O)N[C@@H](CCCNC(=N)N)C(=O)N1CCC[C@H]1C(=O)N[C@H](C)C(N)=O` [Compound 210, N-(3-(4-Fluorophenyl)propionyl)-D-1-Nal-Ser-NMeTyr-D-Lys(N-epsilon-morpholinecarbonyl)-Leu-Arg-Pro-D-AlaNH2] ({Propanoyl(3-(4-F-phenyl))}-[d1Nal]S[NMeY][dK]([CO-Morpholide])LRP[dA]-NH2), the Ki under setting [1] was 8.91 pM.

Consider `CC(C)C[C@H](NC(=O)[C@@H](CCCCNC(=O)c1cccnc1)NC(=O)[C@H](CCCCNC(=O)NN)NC(=O)[C@H](CO)NC(=O)[C@@H](Cc1cccc2ccccc12)NC(=O)CCc1ccc(F)cc1)C(=O)N[C@@H](CCCNC(=N)N)C(=O)N1CCC[C@H]1C(=O)N[C@H](C)C(N)=O` [Compound 212, N-(3-(4-Fluorophenyl)propionyl)-D-1-Nal-Ser-Lys(N-epsilon-hydrazinecarbonyl)-D-Lys(N-epsilon-nicotinyl)-Leu-Arg-Pro-D-AlaNH2] ({Propanoyl(3-(4-F-phenyl))}-[d1Nal]SK(azaGly)[dK](Nicotinoyl)LRP[dA]-NH2), for which the Ki under setting [1] was 33.9 pM.

In the case of `CC(C)C[C@H](NC(=O)[C@@H](CCCCNC(=O)N1CCOCC1)NC(=O)[C@H](Cc1ccc(O)cc1)N(C)C(=O)[C@H](CO)NC(=O)[C@@H](Cc1cccc2ccccc12)NC(=O)CCc1ccc(F)cc1)C(=O)N[C@@H](CCCCNC(C)C)C(=O)N1CCC[C@H]1C(=O)N[C@H](C)C(N)=O` [Compound 213, N-(3-(4-Fluorophenyl)propionyl)-D-1-Nal-Ser-NMeTyr-D-Lys(N-epsilon-morpholnecarbonyl)-Leu-Lys(N-epsilon-isopropyl)-Pro-D-AlaNH2] ({Propanoyl(3-(4-F-phenyl))}-[d1Nal]S[NMeY][dK]([CO-Morpholide])L[Lys(iPr)]P[dA]-NH2), the Ki under setting [1] was 14.8 pM.

Turning to `CC(=O)NCCCC[C@H](NC(=O)c1ccc(F)c(Cl)c1)C(=O)N[C@H](Cc1cccc2ccccc12)C(=O)N[C@@H](CO)C(=O)N(C)[C@@H](Cc1ccc(O)cc1)C(=O)N[C@H](CCCCN)C(=O)N[C@@H](CC(C)C)C(=O)N[C@@H](CCCNC(=N)N)C(=O)N1CCC[C@H]1C(=O)N[C@H](C)C(N)=O` [Compound 214, N-alpha-(3-Chloro-4-Fluorobenzoyl)-Lys(N-epsilon-acetyl)-D-1-Nal-Ser-NMeTyr-D-Lys-Leu-Arg-Pro-D-AlaNH2] (X12-K(Ac)[d1Nal]S[NMeY][dK]LRP[dA]-NH2), the Ki under setting [1] is 141 pM.

As to `CC(=O)NCCC[C@H](NC(=O)c1ccc(F)cc1)C(=O)N[C@H](Cc1cccc2ccccc12)C(=O)N[C@@H](CO)C(=O)N(C)[C@@H](Cc1ccc(O)cc1)C(=O)N[C@H](Cc1cncs1)C(=O)N[C@@H](CC(C)C)C(=O)N[C@@H](CCCCNC(C)C)C(=O)N1CCC[C@H]1C(=O)N[C@H](C)C(N)=O` [Compound 215, N-alpha-(4-Fluorobenzoyl)-Orn(N-delta-acetyl)-D-1-Nal-Ser-NMeTyr-D-Thiaz-Leu-Lys(N-epsilon-isopropyl)-Pro-D-AlaNH2] ({Benzoyl(4-F)}-[Orn](Ac)[d1Nal]S[NMeY][X10]L[Lys(iPr)]P[dA]-NH2), the Ki under setting [1] was 339 pM.

As for `CC(=O)NCCC[C@H](NC(=O)c1ccc(F)cc1)C(=O)N[C@H](Cc1cccc2ccccc12)C(=O)N[C@@H](CO)C(=O)N[C@@H](Cc1ccc(O)cc1)C(=O)N[C@H](CCCCNC(=O)c1cccnc1)C(=O)N[C@@H](CC(C)C)C(=O)N[C@@H](CCCNC(=N)N)C(=O)N1CCC[C@H]1C(=O)N[C@H](C)C(N)=O` [Compound 217, N-alpha-(4-Fluorobenzoyl)-Orn(N-delta-acetyl)-D-1-Nal-Ser-Tyr-D-Lys(N-epsilon-nicotinyl)-Leu-Arg-Pro-D-AlaNH2] ({Benzoyl(4-F)}-[Orn](Ac)[d1Nal]SY[dK](Nicotinoyl)LRP[dA]-NH2), the Ki under setting [1] is 1910 pM.

`CC(=O)NCCC[C@H](NC(=O)c1ccc(F)cc1)C(=O)N[C@H](Cc1cccc2ccccc12)C(=O)N[C@@H](CO)C(=O)N(C)[C@@H](Cc1ccc(O)cc1)C(=O)N[C@H](CCCCNC(=O)c1cccnc1)C(=O)N[C@@H](CC(C)C)C(=O)N[C@@H](CCCCNC(C)C)C(=O)N1CCC[C@H]1C(=O)N[C@H](C)C(N)=O` [Compound 218, N-alpha-(4-Fluorobenzoyl)-Orn(N-delta-acetyl)-D-1-Nal-Ser-NMeTyr-D-Lys(N-epsilon-nicotinyl)-Leu-Lys(N-epsilon-isopropyl)-Pro-D-AlaNH2] ({Benzoyl(4-F)}-[Orn](Ac)[d1Nal]S[NMeY][dK](Nicotinoyl)L[Lys(iPr)]P[dA]-NH2): the Ki under setting [1] was 832 pM.

`CC(C)C[C@H](NC(=O)[C@@H](Cc1c[nH]c2ccccc12)NC(=O)[C@H](Cc1ccc(O)cc1)N(C)C(=O)[C@H](CO)NC(=O)[C@@H](Cc1c[nH]c2ccccc12)NC(=O)[C@@H](Cc1cccc2ccccc12)NC(=O)N1CCOCC1)C(=O)N[C@@H](CCCNC(=N)N)C(=O)N1CCC[C@H]1C(=O)N[C@H](C)C(N)=O` [Compound 220, (2-10)[N-(alpha-Morpholinocarbonyl)-D-1-Nal^2 -D-Trp^3,6 -NMeTyr^5 -D-Ala^10]LHRH] ({Morpholide-CO}-[d1Nal][dW]S[NMeY][dW]LRP[dA]-NH2): under setting [1], the Ki was 170 pM.

Consider `CC(C)C[C@H](NC(=O)[C@@H](Cc1c[nH]c2ccccc12)NC(=O)[C@H](Cc1ccc(O)cc1)N(C)C(=O)[C@H](CO)NC(=O)[C@@H](Cc1c[nH]c2ccccc12)NC(=O)[C@H](Cc1cccc2ccccc12)NC(=O)N1CCOCC1)C(=O)N[C@@H](CCCNC(=N)N)C(=O)N1CCC[C@H]1C(=O)N[C@H](C)C(N)=O` [Compound 221, (2-10)[N-(alpha-Morpholinocarbonyl)-1-Nal^2 -D-Trp^3,6 -NMeTyr^5 -D-Ala^10]LHRH] ({Morpholide-CO}-[1Nal][dW]S[NMeY][dW]LRP[dA]-NH2), for which the Ki under setting [1] was 204 pM.

Turning to `CC(C)C[C@H](NC(=O)[C@@H](Cc1c[nH]c2ccccc12)NC(=O)[C@H](Cc1ccc(O)cc1)NC(=O)[C@H](CO)NC(=O)[C@H](Cc1c[nH]c2ccccc12)NC(=O)[C@H](Cc1cccc2ccccc12)NC(=O)N1CCOCC1)C(=O)N[C@@H](CCCNC(=N)N)C(=O)N1CCC[C@H]1C(=O)N[C@H](C)C(N)=O` [Compound 223, (2-10)[N-(alpha-Morpholinocarbonyl)-1-Nal^2 -D-Trp^6 -D-Ala^10]LHRH] ({Morpholide-CO}-[1Nal]WSY[dW]LRP[dA]-NH2), the Ki under setting [1] was 26.9 pM.

Consider `CC(C)C[C@H](NC(=O)[C@@H](CCCCN)NC(=O)[C@H](Cc1ccc(O)cc1)N(C)C(=O)[C@H](CO)NC(=O)[C@@H](Cc1cccs1)NC(=O)[C@H](Cc1ccc(Cl)cc1)NC(=O)N1CCOCC1)C(=O)N[C@@H](CCCNC(=N)N)C(=O)N1CCC[C@H]1C(=O)N[C@H](C)C(N)=O` [Compound 230, (2-10)[N-(alpha-Morpholinocarbonyl)-4-Cl-Phe^2 -D-Thia^3 -NMeTyr^5 -D-Lys^6 -D-Ala^10]LHRH] ({Morpholide-CO}-[Phe(4-Cl)][d2Thi]S[NMeY][dK]LRP[dA]-NH2), for which the Ki under setting [1] is 110 pM.

`CC(C)C[C@H](NC(=O)[C@@H](Cc1c[nH]c2ccccc12)NC(=O)[C@H](Cc1ccc(O)cc1)N(C)C(=O)[C@H](CO)NC(=O)[C@@H](Cc1c[nH]c2ccccc12)NC(=O)[C@@H](Cc1ccccc1)NC(=O)NCCc1ccccc1)C(=O)N[C@@H](CCCNC(=N)N)C(=O)N1CCC[C@H]1C(=O)N[C@H](C)C(N)=O` [Compound 234, N-(alpha-Phenethylaminocarbonyl)-D-Phe-D-Trp-Ser-NMeTyr-D-Trp-Leu-Arg-Pro-D-AlaNH2] ({NHPhenethyl-CO}-[dF][dW]S[NMeY][dW]LRP[dA]-NH2) had a Ki (Receptor Binding pkI) of 398 pM.
